Laboratory results as given in the supplement of paper PMC8612539.
Converted amounts (≈) assume the structure as drawn.

Experiments:
Enterococcus spp. = test: minimum inhibitory concentration (MIC)
Procedure: (§1)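 Broth microdilution MIC (Sensititre BOPO7F bovine plate, CLSI methods) of 19 antimicrobials against field isolates of P. multocida, M. haemolytica, H. somni (deep nasopharyngeal swabs) and E. coli, Enterococcus spp. (rectal swabs) from weaned dairy heifers. Incubation 16-24 h at 35 C. MIC is the lowest concentration preventing visible growth. Values with <= or > lie at the tested range limits. Trimethoprim-sulfamethoxazole is given as the trimethoprim component of a 1:19 mixture.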

Mannheimia haemolytica = test: minimum inhibitory concentration (MIC)
Procedure: as §1

CN1C[C@@H]2C[C@H]1CN2c1cc2c(cc1F)c(=O)c(C(=O)O)cn2C1CC1 [Danofloxacin]
minimum inhibitory concentration [µg/mL]
Conditions	Enterococcus spp.	Mannheimia haemolytica
isolate (source animal id): 2	0.25 (≈ 0.7 µM)	–
isolate (source animal id): 8	–	0.5 (≈ 1.4 µM)
isolate (source animal id): 13	–	0.5 (≈ 1.4 µM)
isolate (source animal id): 18	–	0.5 (≈ 1.4 µM)
isolate (source animal id): 21	–	0.5 (≈ 1.4 µM)
isolate (source animal id): 25	–	0.5 (≈ 1.4 µM)
isolate (source animal id): 27	–	0.25 (≈ 0.7 µM)
isolate (source animal id): 28	–	> 1
isolate (source animal id): 30	–	0.5 (≈ 1.4 µM)
isolate (source animal id): 31	–	> 1
isolate (source animal id): 32	–	0.25 (≈ 0.7 µM)
isolate (source animal id): 34	–	0.5 (≈ 1.4 µM)
isolate (source animal id): 35	> 1	–
isolate (source animal id): 36	–	0.5 (≈ 1.4 µM)
isolate (source animal id): 37	–	0.5 (≈ 1.4 µM)
isolate (source animal id): 40	–	0.5 (≈ 1.4 µM)
isolate (source animal id): 41	–	0.5 (≈ 1.4 µM)
isolate (source animal id): 42	1 (≈ 2.8 µM)	–
isolate (source animal id): 43	–	0.5 (≈ 1.4 µM)
isolate (source animal id): 44	1 (≈ 2.8 µM)	–
isolate (source animal id): 46	–	0.5 (≈ 1.4 µM)
isolate (source animal id): 49	–	0.5 (≈ 1.4 µM)
isolate (source animal id): 50	–	0.5 (≈ 1.4 µM)
isolate (source animal id): 51	–	0.5 (≈ 1.4 µM)
isolate (source animal id): 52	–	0.5 (≈ 1.4 µM)
isolate (source animal id): 53	–	0.5 (≈ 1.4 µM)
isolate (source animal id): 55	–	0.5 (≈ 1.4 µM)
isolate (source animal id): 56	–	0.5 (≈ 1.4 µM)
isolate (source animal id): 57	–	> 1
isolate (source animal id): 79	1 (≈ 2.8 µM)	–
isolate (source animal id): 88	0.25 (≈ 0.7 µM)	–
isolate (source animal id): 91	0.25 (≈ 0.7 µM)	–
isolate (source animal id): 92	1 (≈ 2.8 µM)	–
isolate (source animal id): 100	–	> 1
isolate (source animal id): 103	–	0.5 (≈ 1.4 µM)
isolate (source animal id): 107	–	0.5 (≈ 1.4 µM)
isolate (source animal id): 108	–	0.5 (≈ 1.4 µM)
isolate (source animal id): 111	0.25 (≈ 0.7 µM)	–
isolate (source animal id): 112	–	0.5 (≈ 1.4 µM)
isolate (source animal id): 113	–	> 1
isolate (source animal id): 121	–	0.5 (≈ 1.4 µM)
isolate (source animal id): 122	1 (≈ 2.8 µM)	0.5 (≈ 1.4 µM)
isolate (source animal id): 123	0.5 (≈ 1.4 µM)	> 1
isolate (source animal id): 126	–	> 1
isolate (source animal id): 133	1 (≈ 2.8 µM)	> 1
isolate (source animal id): 135	–	> 1
isolate (source animal id): 138	–	> 1
isolate (source animal id): 141	–	> 1
isolate (source animal id): 142	–	> 1
isolate (source animal id): 145	–	> 1
isolate (source animal id): 149	–	≤ 0.12
isolate (source animal id): 151	–	≤ 0.12
isolate (source animal id): 152	–	> 1
isolate (source animal id): 154	–	≤ 0.12
isolate (source animal id): 158	1 (≈ 2.8 µM)	–
isolate (source animal id): 159	–	> 1
isolate (source animal id): 162	–	> 1
isolate (source animal id): 168	0.5 (≈ 1.4 µM)	–
isolate (source animal id): 169	0.5 (≈ 1.4 µM)	–
isolate (source animal id): 170	–	≤ 0.12
isolate (source animal id): 171	0.5 (≈ 1.4 µM)	≤ 0.12
isolate (source animal id): 172	–	≤ 0.12
isolate (source animal id): 173	–	≤ 0.12
isolate (source animal id): 175	> 1	–
isolate (source animal id): 177	> 1	–
isolate (source animal id): 179	–	≤ 0.12
isolate (source animal id): 180	–	≤ 0.12
isolate (source animal id): 181	0.5 (≈ 1.4 µM)	–
isolate (source animal id): 182	1 (≈ 2.8 µM)	–
isolate (source animal id): 183	1 (≈ 2.8 µM)	≤ 0.12
isolate (source animal id): 186	–	≤ 0.12
isolate (source animal id): 187	0.5 (≈ 1.4 µM)	≤ 0.12
isolate (source animal id): 188	–	≤ 0.12
isolate (source animal id): 190	0.5 (≈ 1.4 µM)	≤ 0.12
isolate (source animal id): 191	–	≤ 0.12
isolate (source animal id): 192	–	≤ 0.12
isolate (source animal id): 194	0.5 (≈ 1.4 µM)	–
isolate (source animal id): 195	0.5 (≈ 1.4 µM)	–
isolate (source animal id): 197	0.5 (≈ 1.4 µM)	–
isolate (source animal id): 201	–	≤ 0.12
isolate (source animal id): 202	–	≤ 0.12
isolate (source animal id): 209	–	≤ 0.12
isolate (source animal id): 211	1 (≈ 2.8 µM)	≤ 0.12
isolate (source animal id): 214	> 1	–
isolate (source animal id): 220	–	≤ 0.12
isolate (source animal id): 221	–	≤ 0.12
isolate (source animal id): 222	0.5 (≈ 1.4 µM)	–
isolate (source animal id): 223	0.5 (≈ 1.4 µM)	≤ 0.12
isolate (source animal id): 228	0.5 (≈ 1.4 µM)	–
isolate (source animal id): 230	0.5 (≈ 1.4 µM)	–
isolate (source animal id): 233	–	> 1
isolate (source animal id): 235	0.5 (≈ 1.4 µM)	–
isolate (source animal id): 236	> 1	–
isolate (source animal id): 237	–	> 1
isolate (source animal id): 239	> 1	–
isolate (source animal id): 241	0.5 (≈ 1.4 µM)	> 1
isolate (source animal id): 244	0.5 (≈ 1.4 µM)	–
isolate (source animal id): 246	0.5 (≈ 1.4 µM)	–
isolate (source animal id): 247	0.5 (≈ 1.4 µM)	–
isolate (source animal id): 250	0.25 (≈ 0.7 µM)	–
isolate (source animal id): 252	> 1	0.25 (≈ 0.7 µM)
isolate (source animal id): 253	–	0.5 (≈ 1.4 µM)
isolate (source animal id): 259	–	> 1
isolate (source animal id): 260	–	0.5 (≈ 1.4 µM)
isolate (source animal id): 262	–	> 1
isolate (source animal id): 268	0.25 (≈ 0.7 µM)	–
isolate (source animal id): 282	1 (≈ 2.8 µM)	> 1
isolate (source animal id): 285	1 (≈ 2.8 µM)	–
isolate (source animal id): 287	–	0.5 (≈ 1.4 µM)
isolate (source animal id): 288	–	≤ 0.12
isolate (source animal id): 289	0.5 (≈ 1.4 µM)	–
isolate (source animal id): 290	0.5 (≈ 1.4 µM)	–
isolate (source animal id): 291	–	≤ 0.12
isolate (source animal id): 293	–	0.5 (≈ 1.4 µM)
isolate (source animal id): 296	0.5 (≈ 1.4 µM)	–
isolate (source animal id): 298	0.5 (≈ 1.4 µM)	0.5 (≈ 1.4 µM)
isolate (source animal id): 299	–	0.5 (≈ 1.4 µM)
isolate (source animal id): 300	–	≤ 0.12
isolate (source animal id): 301	0.5 (≈ 1.4 µM)	–
isolate (source animal id): 302	–	0.5 (≈ 1.4 µM)
isolate (source animal id): 304	–	0.5 (≈ 1.4 µM)
isolate (source animal id): 306	–	≤ 0.12
isolate (source animal id): 308	–	≤ 0.12
isolate (source animal id): 309	–	≤ 0.12
isolate (source animal id): 310	> 1	–
isolate (source animal id): 313	–	0.5 (≈ 1.4 µM)
isolate (source animal id): 318	–	0.25 (≈ 0.7 µM)
isolate (source animal id): 320	0.5 (≈ 1.4 µM)	≤ 0.12
isolate (source animal id): 321	–	0.5 (≈ 1.4 µM)
isolate (source animal id): 323	–	0.5 (≈ 1.4 µM)
isolate (source animal id): 324	–	0.5 (≈ 1.4 µM)
isolate (source animal id): 326	–	0.5 (≈ 1.4 µM)
isolate (source animal id): 328	–	0.5 (≈ 1.4 µM)
isolate (source animal id): 329	–	0.5 (≈ 1.4 µM)
isolate (source animal id): 331	1 (≈ 2.8 µM)	–
isolate (source animal id): 333	0.5 (≈ 1.4 µM)	0.5 (≈ 1.4 µM)
isolate (source animal id): 335	–	0.5 (≈ 1.4 µM)
isolate (source animal id): 338	–	0.5 (≈ 1.4 µM)
isolate (source animal id): 341	> 1	–
